Results on 2 compounds are retold here after US20210147801A1, “METHODS FOR INCREASING EXPANSION AND IMMUNOSUPPRESSIVE CAPACITY OF A POPULATION OF CD8+CD45RCLOW/- TREGS” (INSERM (INSTITUT NATIONAL DE LA SANTÉ ET DE LA RECHERCHE …, priority 2017, published 2021).

Common to all, as to assay type: cell-based, human
Assay [1] deals with CD8+CD45RClow/- Tregs. In words: Expansion of CD8+CD45RClow/- Tregs with anti-CD3/anti-CD28 in medium supplemented with immunosuppressive drugs (14 days). As to conditions: rapamycin 45 ng/ml, methylprednisolone 500 pg/ml, mycophenolate mofetil 1 μg/ml; for expansion yield: Example 3, FIG. 3, cyclosporine A 45 ng/ml, tacrolimus 2 ng/ml, vs no IS drug.
Experimental: CD8^+CD45RC^low/− Tregs from fresh or thawed PBMCs were seeded at 3×10^5/ml in RPMI1640 medium supplemented with 10% AB serum, Penicillin (100 U/ml), Streptomycin (0.1 mg/ml), Sodium pyruvate (1 mM), Glutamine (2 mM), Hepes Buffer (1 mM), non-essential amino acids (1×), IL-2 (1000 U/ml) and IL-15 (10 ng/ml), and were stimulated with coated anti-CD3 mAb (1 μg/ml), soluble anti-CD28 mAb (1 μg/ml) and/or allogeneic APCs at 1:4 Tregs: APCs ratio. At day 7, expanded cells were diluted at 1.5×10^5/ml and stimulated again with coated anti-CD3 and soluble anti-CD28 mAbs (1 μg/ml each). […] At day 14, expanded Tregs were washed with PBS before use. Suppressive activity was tested on CD8^+CD45RC^low/− Tregs expanded more than 10 fold in 7 days. For long-term expansion, CD8^+CD45RC^low/− Tregs and CD4^+CD25^highCD127^low/− Tregs were stimulated again with coated anti-CD3 (1 μg/ml) and soluble anti-CD28 MAbs (1 μg/ml) at days 14 and 21 and IL-2 and IL-15 cytokines were freshly added every 2 days from day 7 to 28. Culture medium 1× cytokines (IL-2 (1000 U/ml) and IL-15 (10 ng/ml)) was added when required.
Assay [2] relates to CD8+CD45RClow/- Tregs. In words: Suppressive activity of drug-expanded Tregs on CD4+CD25- effector T cells stimulated with allogeneic APCs (CFSE). Particulars: for suppressive activity of Tregs: Example 3, FIG. 3, Tregs harvested at day 14, 1:1:1 Tregs:Teff:APCs, same drug concentrations, vs no IS drug. The protocol: CD8^+CD45RC^low/− Tregs from fresh or thawed PBMCs were seeded at 3×10^5/ml in RPMI1640 medium supplemented with 10% AB serum, Penicillin (100 U/ml), Streptomycin (0.1 mg/ml), Sodium pyruvate (1 mM), Glutamine (2 mM), Hepes Buffer (1 mM), non-essential amino acids (1×), IL-2 (1000 U/ml) and IL-15 (10 ng/ml), and were stimulated with coated anti-CD3 mAb (1 μg/ml), soluble anti-CD28 mAb (1 μg/ml) and/or allogeneic APCs at 1:4 Tregs: APCs ratio. At day 7, expanded cells were diluted at 1.5×10^5/ml and stimulated again with coated anti-CD3 and soluble anti-CD28 mAbs (1 μg/ml each). […] At day 14, expanded Tregs were washed with PBS before use. Suppressive activity was tested on CD8^+CD45RC^low/− Tregs expanded more than 10 fold in […]. For long-term expansion, CD8^+CD45RC^low/− Tregs and CD4^+CD25^highCD127^low/− Tregs were stimulated again with coated anti-CD3 (1 μg/ml) and soluble anti-CD28 MAbs (1 μg/ml) at days 14 and 21 and IL-2 and IL-15 cytokines were freshly added every 2 days from day 7 to 28. Culture medium 1× cytokines (IL-2 (1000 U/ml) and IL-15 (10 ng/ml)) was added when required.
We tested the effect of immunosuppressive drugs (at concentrations used in the clinic) on CD8^+CD45RC^low/− Tregs survival 7 days following the 14 days expansion (FIG. 1) or on the expansion yield and suppressive function score of CD8^+CD45RC^low/− Tregs during the 14 days expansion (FIG. 3D).
Methods: Fresh blood was taken from 1 healthy volunteer, PBMCs were isolated by Ficoll centrifugation, washed in PBS, adjusted at 2×10^8 PBMC/ml in PBS-FCS-EDTA and were incubated with anti-CD3-PeCy7, anti CD4-PerCPCy5.5 and anti-CD45RC FITC 30′ 4° C. Cells were washed with PBS-FCS-EDTA, filtered on 60 μm tissue, labeled with Dapi and FACS Aria sorted on lymphocyte morphology, exclusion of doublet cells, and DAPI-CD3^+CD4^−CD45RC^low/− expression. […] At days 10 and 12, cytokines were freshly added. Expanded Tregs were harvested at day 14 for suppressive activity assessment. […] After 5 days culture, Teff proliferation was analyzed by CFSE analysis in DAPI^−CD4±CD3^+ T cells.

Assay [3] concerns CD8+CD45RClow/- Tregs. As to the kind of experiment: Tregs associated markers expression at day 21 after 7 d culture in IS-supplemented medium. Particulars: Example 4, FIG. 4, tacrolimus 2 ng/ml, compared to drug free medium. Here is the method:
Methods: Fresh blood was taken from 1 healthy volunteer, PBMCs were isolated by Ficoll centrifugation, washed in PBS, adjusted at 2×10^8 PBMC/ml in PBS-FCS-EDTA and were incubated with anti-CD3-PeCy7, anti CD4-PerCPCy5.5 and anti-CD45RC FITC 30′ 4° C. Cells were washed with PBS-FCS-EDTA, filtered on 60 μm tissue, labeled with Dapi and FACS Aria sorted on lymphocyte morphology, exclusion of doublet cells, and DAPI-CD3^+CD4^−CD45RC^low/− expression. […] At days 7, Tregs were harvested, counted, washed, and plated at 5×10^5Tregs/well/3 ml in p6 plate previously coated with anti-CD3 (OKT3 clone, 1 μg/ml in PBS, 1 ml/well, 1 h at 37° C. then washed with PBS 3 times), in RPMI1640 medium supplemented with 10% AB serum, Penicillin (100 U/ml), Streptomycin (0.1 mg/ml), Sodium pyruvate (1 mM), Glutamine (2 mM), Hepes Buffer (1 mM), non-essential amino acids (1×), IL-2 (1000 U/ml) and IL-15 (10 ng/ml), anti-CD28 mAbs (clone CD28.2, soluble, 1 μg/ml). […] Tregs were analyzed at day 21 for survival/expansion yield and phenotype.

In the case of `C=CC[C@@H]1/C=C(\C)C[C@H](C)C[C@H](OC)[C@H]2O[C@@](O)(C(=O)C(=O)N3CCCC[C@H]3C(=O)O[C@H](/C(C)=C/[C@@H]3CC[C@@H](O)[C@H](OC)C3)[C@H](C)[C@@H](O)CC1=O)[C@H](C)C[C@@H]2OC` [Tacrolimus, tacrolimus], in the assay with CD8+CD45RClow/- Tregs [1], the expansion yield entry is recorded as “improved”. In addition, the “suppressive activity of Tregs” value with CD8+CD45RClow/- Tregs [2] is reported as “improved”. Besides, the “IFNg expression by Tregs” value in the assay on CD8+CD45RClow/- Tregs [3] is “significantly decreased”.
`COc1c(C)c2c(c(O)c1C/C=C(\C)CCC(=O)OCCN1CCOCC1)C(=O)OC2` [mycophenolate mofetil]: the expansion fold result in the assay on CD8+CD45RClow/- Tregs [1] (Example 1, FIG. 3D, drugs added alone during 14 days or subsequently (day 0-7, then day 7-14), vs no immunosuppressor (NT)) is listed as “inhibited the expansion by rapamycin”. For the same compound, in the assay with CD8+CD45RClow/- Tregs [1], the expansion yield result was “deleterious”. Moreover, in the assay with CD8+CD45RClow/- Tregs [2] (Example 1, FIG. 3D, Tregs expanded 14 days with drugs alone or subsequently, vs no immunosuppressor (NT)), the suppression capacity entry is given as “decreased suppression”. The “suppressive activity of Tregs” value with CD8+CD45RClow/- Tregs [2] is reported as “deleterious”.
